The test system of assay [1] is MN-11 cells. Kind of assay: Extracellular HMGB1 Western blot, MN-11. The assay is classed as cell-based, murine. As to the method: On the other hand, The MN-11 cells were seeded at the density of 1 × 10^5 cells/well and left to adhere for 24 hrs. Cells were treated with Nal-P-113, Bip-P-113 and Dip-P-113 at 2× IC50 for 1 and 4 hours. After treatment of the peptides, the supernatant and lysate of the cells were collected separately for further experiments. The supernatant was collected after centrifugation at the speed of 1,400 ×g. The cell lysate was washed twice using PBS before the sonication of the pellet using bio-disruptor, and the disrupted pellet was centrifuged again for 10 minutes under 14,000 rpm at 4° C. The concentration of the samples was quantified using the Bradford assay. Both supernatants and cell lysate were loaded and run on the sodium dodecyl sulfate polyacrylamide gel electrophoresis (SDS-PAGE), and then electro transferred to a polyvinylidene difluoride (PVDF) membrane (Merck-Millipore, Burlington, Massachusetts, United States) in electro-blot system, 30 V, 400 mA, for 75 mins. The membrane was incubated in blocking buffer (5% skim milk, TBST buffer) for 1 hour in room temperature and washed in TBST buffer three times. […] The secondary antibody of rabbit (diluted in 1: 10000) was incubated following the rinsing with PBST three times for 2 hours the next day in the room temperature before being developed using luminol reagent and imaged by a detected system (ImageQuant LAS 4000 mini).

For assay [2], the system named is MN-11 cells. Kind of assay: Tumor re-challenge of cured animals. The assay is classed as in vivo, C57BL/6 mice. As to conditions: n=5. As to the method: Tumor size was measured every 2 days using a caliper, and the volume of tumors was calculated using the following formula: Tumor size (mm^3) = 0.5×(width^2×length). The survival rates of tumor-bearing mice were observed and recorded

For assay [3], the system named is MN-11 cells. Kind of assay: Luciferin-luciferase extracellular ATP, MN-11. Format: cell-based, murine. The note with it: MN-11, 2 × IC50, peak at 0.5-hour. As to the method: On the other hand, MN-11 cells were seeded at the density of 25,000 cells/ well in the 96 well plate and allowed to adhere for 24 hours. Cells were treated with Nal-P-113, Bip-P-113 and Dip-P-113 at 2× IC50 for 0.5, 1, 1.5, and 2 hours. Untreated cells served as the control group. After being treated for different time points (0.5, 1, 1.5, and 2 hours), the supernatant of cells was analyzed using the ENLITEN ATP luciferase assay kit (Promega, Madison, WI, USA). The level of the extracellular ATP chemiluminescence was measured at 560 nm using the Wallac VICTOR 3 Multilabel plate reader (PerkinElmer, Shelton, CT, USA).
ATP release from MN-11 cells were measured using the luciferin-luciferase assay after peptide (2 × IC50) treatment (FIGS. 6B-6D). Nal-P-113 and Dip-P-113 reached the relative light unit (~ 11,000 RLU) peak at 0.5-hour, and Bip-P-113 reached the highest peak at 1 hour (~ 13,000 RLU).

The next assay has as its system PC 9 cells. Kind of assay: Extracellular cytochrome c ELISA, PC 9. Format: cell-based, human. The note with it: PC 9, 2-fold IC50, time not stated. As to the method:
The cytochrome c release was a part of mitochondrial damage-associated molecular patterns, therefore the amount of cytochrome c released into supernatant were measured by cytochrome c ELISA assay.
The cells were washed three times using PBS solution to remove all serum components and 1× 10^6 cells/ mL was solubilised in ice-cold 0.5% Triton-X 100-PBS solution at 2-8° C. for 10 minutes. Then, the speed of 16,000 xg was applied to centrifuge the extract for another 10 minutes, and serially dilute the aliquot of supernatant collected with Calibrator Diluent RD5-18 as described in the manufacturer’s protocol.
Quantifying the volume of cytochrome c released and the results were presented in FIGS. 7A-7C via ELISA assay for 0.5, 1, 1.5, and 2 hours. SEQ ID NO:4 group induced a relatively high amount of cytochrome c compared to SEQ ID NO:3 group and SEQ ID NO: 5 group. The cytochrome c release for SEQ ID NO:4 group was double the amount of SEQ ID NO:3 group and SEQ ID NO: 5 group. The trend of cytochrome c release in SEQ ID NO:4 and SEQ ID NO:3 treated PC 9 cells were escalating from 30 minutes to 4 hours, in contrast the SEQ ID NO: 5 group has fluctuating trend. […] The highest amount of cytochrome c detected in the supernatant for SEQ ID NO:3 and SEQ ID NO: 5 were around 3.5 ng/mL and lower than 2 ng/mL for the least.

The test system of assay [4] is MN-11 cells. Kind of assay: PI/Hoechst 33342 staining, plasma membrane integrity. As to conditions: MN-11, 2× IC50, 2 hrs, data not shown. The assay is classed as cell-based, murine. As to the method: To examine the membrane-lytic activities of peptides, the PI/Hoechst 33342 staining was performed in this embodiment. The PI dye was used to stain damaged/dead cells, and Hoechst 33342 was used to specifically stain the nuclei of living cells. MN-11 cells were seeded at 50,000 cells/well in a RPMI medium and allowed to adhere for 24 hours. Then the cells were replaced with serum-free RPMI medium, and then treated with 2× IC50 peptides at 37° C. for 2 hrs. DMEM medium without peptide was used as negative control. The PI and Hoechst 33342 were added at a final concentration of 1 µg/ml for 20 mins. The cells were observed using the inverted fluorescent microscope Zeiss equipped with a 40× oil objective lens (Carl Zeiss, Germany). The experiments were repeated three times independently
To examine the membrane-lytic activities of Nal-P-113, Bip-P-113, and Dip-P-113, the DNA binding fluorescent dye Propidium iodide (PI) was used to stain damaged/dead cells, and Hoechst 33342 was used to specifically stain the nuclei of living cells.

For the next assay, the system named is MN-11 cell line. Format: cell-based, murine. As to conditions: 2 h. As to the method: Besides, evaluation of the killing kinetics of Nal-P-113, Bip-P-113 and Dip-P-113 for MN-11 was determined by MTT assay. Two-fold half 1inhibitory concentration (2 × IC50) was chosen for the experiments and the results were recorded at selected time points (30 mins, 1 hour, 2 hours and 4 hours). […] In 2 hours, the cell survival rate was near 50%.

Non-standard residues stand in square brackets, D forms with d. Residues, ends and D or L forms follow the SMILES beside them. 2Nal = N[C@@H](Cc1ccc2ccccc2c1)C(=O)O

Take `CC(=O)N[C@@H](C)C(=O)N[C@@H](CCCCN)C(=O)N[C@@H](CCCNC(=N)N)C(=O)N[C@@H](Cc1ccc2ccccc2c1)C(=O)N[C@@H](Cc1ccc2ccccc2c1)C(=O)NCC(=O)N[C@@H](Cc1ccc(O)cc1)C(=O)N[C@@H](CCCCN)C(=O)N[C@@H](CCCNC(=N)N)C(=O)N[C@@H](CCCCN)C(=O)N[C@@H](Cc1ccccc1)C(=O)N[C@@H](Cc1ccc2ccccc2c1)C(N)=O` [SEQ ID NO:3, Ac-AKR Nal Nal GYKRKFNal-NH2] (Ac-AKR[2Nal][2Nal]GYKRKF[2Nal]-NH2): the HMGB1 in supernatant entry in the assay with MN-11 cells [1] (MN-11, 2× IC50, 1 hour) was “observed in the supernatant”; with MN-11 cells [1] (MN-11, 2× IC50, 4 hours), “still a significant concentration”. In addition, in the assay with MN-11 cells [2] (animals with complete regression, s.c. re-challenge), the “protection from MN-11 cells re-challenge” value is on record as “All animals were protected”. In addition, the survival after re-challenge result in the assay on MN-11 cells [2] (until the end of the experiments (55 days)) was “stayed alive”. Further, the “ATP release, relative light unit peak” value with MN-11 cells [3] was ~ 11,000 RLU. In the assay on PC 9 cells, the “highest amount of cytochrome c detected in the supernatant” value was “around 3.5 ng/mL”. The “plasma membrane integrity (PI entering cells)” value in the assay on MN-11 cells [4] was “can cause damage to the plasma membrane integrity”. Also, the cell survival rate with MN-11 cell line was ~50%.

(Values after patent US20230338463A1, “ICD PEPTIDE AND USE THEREOF FOR HAVING CYTOTOXIC ACTIVITY ON CANCER CELLS” (NATIONAL TSING HUA UNIVERSITY, priority 2022, published 2023).)
